Reference: ChEMBL document CHEMBL1201862, “PubChem BioAssay data set” (2004)
Activity calls are given as the source filed them.

Tests used:
[1] = Late stage assay provider counterscreen for TLR9 inhibitors: absorbance-based cell-based MTT cytotoxicity assay.; type: functional
CHO = assay: cytotoxicity in TLR9-MyD88 CHO cells, dose response, cytotoxicity control for TLR9-MyD88 binding inhibitor project, cell-based, luminescence (AID 588339); type: functional, hamster; conditions: Cricetulus griseus;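 note: CHO cells stably coexpressing TLR9 and MyD88 fusions from primary screen; compound exposure lasted 48 hours before viability readout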
[2] = molecular target: Photoreceptor-specific nuclear receptor (Homo sapiens, UniProt Q9Y5X4); type: functional, cell-based;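 note: CHO-S cells with Gal4-NCOR and VP16-NR2E3 two-hybrid luciferase reporter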
Beta Lactamase = Beta Lactamase (Pseudomonas aeruginosa, UniProt Q932Y6); assay: beta-lactamase reporter inhibitor potency, dose response, artefact control for TLR9-MyD88 binding inhibitor project, BLA reporter cells, FRET fluorescence (AID 588341); type: cell-based;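 note: cell based assay in CHO-K1 cells stably expressing beta-lactamase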
[3] = Mycobacterium tuberculosis BioA enzyme inhibitor Measured in Biochemical System Using Plate Reader - 2163-02_Inhibitor_Dose_DryPowder_Activity.
A549 = assay: A549 cell toxicity, dose response, cytotoxicity control, plate reader, cherry-pick samples (AID 687028); type: functional, cell-based; conditions: Homo sapiens
[4] = molecular target: Kappa-type opioid receptor (Homo sapiens, UniProt P41145); assay: OPRK1 antagonists, late-stage follow-up, cell-based, fluorescence, dose response (AID 652032); type: functional
[5] = P. falciparum 3D7-ScDHODH growth inhibitors, dose response, SYBR Green, dry powder samples (AID 1159570); type: functional, cell-based;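 note: parasite growth measured after 72 hours of compound exposure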
[6] = P. falciparum Dd2 growth inhibitors, dose response, SYBR Green, cherry-picked samples (AID 1159567); type: functional, cell-based
[7] = HepG2 cell cytotoxicity, dose response, cytotoxicity control, cherry-picked samples (AID 1159577); type: functional, cell-based
[8] = YAP1 pathway inhibition via CTGF transcript levels, dose response, cell-based, DLD1 colon cancer, RT-qPCR, cherry-pick (AID 1053122); type: functional; conditions: Cancer cell lines
[9] = P. falciparum ATP4 D1247Y mutant growth inhibitors, dose response, NITD609-resistant line, SYBR Green, dry powder (AID 1159571); type: functional, cell-based;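 note: parasites synchronized at ring stage by sorbitol before testing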
[10] = P. falciparum Dd2 growth inhibitors, dose response, SYBR Green, dry powder samples (AID 1159566); type: functional, cell-based;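 note: potency for growth inhibition with lower SYBR green DNA signal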
[11] = HepG2 cell cytotoxicity, dose response, cytotoxicity control, plate reader, dry powder samples (AID 1159569); type: functional, cell-based;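 note: inhibitor potency with signal falling toward the positive control level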
[12] = HepG2 cell cytotoxicity, dose response, cytotoxicity control, ATP luminescence, cherry-pick, activator set 2 (AID 1053143); type: functional, cell-based
[13] = Late stage assay provider results from the probe development effort to identify selective inhibitors of heat shock protein 90 (HSP90): Absorbance-based cell proliferation assay in MCF7 cells.; type: functional
[14] = Late stage assay provider results from the probe development effort to identify selective inhibitors of heat shock protein 90 (HSP90): Absorbance-based cell proliferation assay in SKBR3 cells.; type: functional; conditions: SK-BR-3
[15] = cytotoxicity dependent on PAX8, dose response, cell-based, plate reader, dry powder (AID 743049); type: functional
[16] = cytotoxicity in COV362 ovarian cancer cells, dose response, cytotoxicity control for PAX8 inhibitor project, cell-based, plate reader, dry powder, SA12 (AID 743144); type: functional
[17] = cytotoxicity in OV-90 ovarian cancer cells, dose response, PAX8 inhibitor project, cell-based, plate reader, dry powder, SA8 (AID 743149); type: functional
Paired box protein Pax-8 = Paired box protein Pax-8 (Homo sapiens, UniProt Q06710); assay: inhibitors of PAX8-driven TPO luciferase reporter, dose response, RMG-I cells, cherry-pick (AID 687027); type: functional, cell-based;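 note: luciferase reporter driven by Pax8 target thyroperoxidase promoter measured by SteadyGlo luminescence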
Beta-galactosidase = Beta-galactosidase (Escherichia coli, UniProt Q8VNN2); assay: Dose response counterscreen for EBI2 assay utilizing the enzyme, b-galactosidase.; type: functional
[18] = NIH:OVCAR-3 ovarian cancer cell cytotoxicity, dose response, PAX8 inhibitor project, plate reader, dry powder samples (AID 743044); type: functional, cell-based
[19] = PAX2 cell-based inhibition, dose response, selectivity assay for PAX8 inhibitor project, plate reader, dry powder samples (AID 743048); type: functional;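 note: HEK293 cells carrying a WT1 promoter luciferase reporter driven by expressed Pax2; potency is for inhibition of Pax2 driven reporter signal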
[20] = cytotoxicity in OVCAR4 cells, dose response, cytotoxicity control for PAX8 inhibitor project, cell-based, plate reader, dry powder, SA11 (AID 743150); type: functional; conditions: OVCAR-4
[21] = cytotoxicity in COV434 cells, dose response, cytotoxicity control for PAX8 inhibitor project, cell-based, plate reader, dry powder, SA7 (AID 743145); type: functional
[22] = IGROV1 ovarian cancer cell cytotoxicity, dose response, PAX8 inhibitor project, plate reader, dry powder samples (AID 743043); type: functional, cell-based; conditions: IGROV-1
[23] = molecular target: Potassium channel subfamily K member 9 (Homo sapiens, UniProt Q9NPC2); assay: TASK3 (KCNK9) channel inhibitors, thallium flux, SAR follow-up, selectivity assay for TASK1 inhibitor project, cell-based, FluxOR thallium flux, concentration-response (AID 652211); type: functional;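 note: potency is for inhibitors of the channel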
Chain of Potassium channel subfamily K member 9 (Q9NPC2 whole entry): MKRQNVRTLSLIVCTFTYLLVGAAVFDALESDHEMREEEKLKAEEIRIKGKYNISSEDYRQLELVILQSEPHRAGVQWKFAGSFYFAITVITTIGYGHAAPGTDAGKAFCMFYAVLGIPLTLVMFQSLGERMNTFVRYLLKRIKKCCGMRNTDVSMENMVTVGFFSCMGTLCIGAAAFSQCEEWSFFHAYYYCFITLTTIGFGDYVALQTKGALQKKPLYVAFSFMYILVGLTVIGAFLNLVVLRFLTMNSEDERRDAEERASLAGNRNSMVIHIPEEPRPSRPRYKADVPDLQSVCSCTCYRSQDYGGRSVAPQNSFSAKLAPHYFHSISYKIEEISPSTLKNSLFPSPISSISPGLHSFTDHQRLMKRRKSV

Chain of Photoreceptor-specific nuclear receptor (Q9Y5X4 whole entry, the tested form may be a part): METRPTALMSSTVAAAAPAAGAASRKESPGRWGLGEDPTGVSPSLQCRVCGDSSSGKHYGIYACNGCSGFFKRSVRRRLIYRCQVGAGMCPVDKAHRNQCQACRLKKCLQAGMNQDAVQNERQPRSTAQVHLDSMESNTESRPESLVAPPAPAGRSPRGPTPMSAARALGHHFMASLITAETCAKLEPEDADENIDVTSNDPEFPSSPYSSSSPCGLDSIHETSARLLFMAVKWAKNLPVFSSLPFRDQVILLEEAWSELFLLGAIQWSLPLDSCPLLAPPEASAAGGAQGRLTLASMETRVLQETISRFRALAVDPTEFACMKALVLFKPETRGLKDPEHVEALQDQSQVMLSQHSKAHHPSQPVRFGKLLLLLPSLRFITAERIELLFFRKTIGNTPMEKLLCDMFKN
Chain of Beta-galactosidase (Q8VNN2 whole entry): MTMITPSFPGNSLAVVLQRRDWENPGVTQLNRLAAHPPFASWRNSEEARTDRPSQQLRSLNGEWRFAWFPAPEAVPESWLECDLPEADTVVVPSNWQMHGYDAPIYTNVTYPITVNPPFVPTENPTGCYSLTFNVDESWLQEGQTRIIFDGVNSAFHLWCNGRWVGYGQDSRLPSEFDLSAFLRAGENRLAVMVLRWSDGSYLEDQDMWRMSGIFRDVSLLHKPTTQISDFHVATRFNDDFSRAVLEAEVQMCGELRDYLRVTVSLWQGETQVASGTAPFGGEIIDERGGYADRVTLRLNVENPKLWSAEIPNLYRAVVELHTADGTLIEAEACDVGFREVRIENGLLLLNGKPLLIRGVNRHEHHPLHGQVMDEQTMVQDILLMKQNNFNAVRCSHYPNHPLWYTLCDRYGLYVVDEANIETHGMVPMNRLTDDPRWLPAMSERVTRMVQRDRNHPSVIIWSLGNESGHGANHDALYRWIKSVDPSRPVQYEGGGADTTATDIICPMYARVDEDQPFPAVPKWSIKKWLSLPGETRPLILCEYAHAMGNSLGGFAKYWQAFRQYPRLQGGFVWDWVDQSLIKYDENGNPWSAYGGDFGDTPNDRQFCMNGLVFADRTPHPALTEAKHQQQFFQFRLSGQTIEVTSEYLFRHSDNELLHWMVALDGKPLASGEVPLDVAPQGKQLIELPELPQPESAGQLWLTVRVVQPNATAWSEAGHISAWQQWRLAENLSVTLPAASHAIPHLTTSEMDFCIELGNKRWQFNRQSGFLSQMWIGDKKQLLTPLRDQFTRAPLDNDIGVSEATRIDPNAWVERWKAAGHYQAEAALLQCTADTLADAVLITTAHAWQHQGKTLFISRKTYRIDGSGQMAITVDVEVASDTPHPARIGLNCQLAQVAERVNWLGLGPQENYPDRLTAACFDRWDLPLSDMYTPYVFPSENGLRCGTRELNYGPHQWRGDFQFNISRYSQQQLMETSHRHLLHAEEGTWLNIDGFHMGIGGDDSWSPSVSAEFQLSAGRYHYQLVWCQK
Chain of Kappa-type opioid receptor (P41145 whole entry): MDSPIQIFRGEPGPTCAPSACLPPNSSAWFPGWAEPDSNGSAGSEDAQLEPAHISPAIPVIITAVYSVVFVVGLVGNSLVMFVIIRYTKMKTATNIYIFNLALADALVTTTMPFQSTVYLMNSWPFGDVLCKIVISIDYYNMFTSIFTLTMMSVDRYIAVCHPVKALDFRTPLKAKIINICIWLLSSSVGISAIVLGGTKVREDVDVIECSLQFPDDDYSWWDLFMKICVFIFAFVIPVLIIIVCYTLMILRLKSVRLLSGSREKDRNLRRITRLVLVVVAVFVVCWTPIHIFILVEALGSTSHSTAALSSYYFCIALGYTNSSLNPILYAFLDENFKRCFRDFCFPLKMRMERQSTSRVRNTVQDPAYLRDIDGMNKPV
Chain of Paired box protein Pax-8 (Q06710 whole entry): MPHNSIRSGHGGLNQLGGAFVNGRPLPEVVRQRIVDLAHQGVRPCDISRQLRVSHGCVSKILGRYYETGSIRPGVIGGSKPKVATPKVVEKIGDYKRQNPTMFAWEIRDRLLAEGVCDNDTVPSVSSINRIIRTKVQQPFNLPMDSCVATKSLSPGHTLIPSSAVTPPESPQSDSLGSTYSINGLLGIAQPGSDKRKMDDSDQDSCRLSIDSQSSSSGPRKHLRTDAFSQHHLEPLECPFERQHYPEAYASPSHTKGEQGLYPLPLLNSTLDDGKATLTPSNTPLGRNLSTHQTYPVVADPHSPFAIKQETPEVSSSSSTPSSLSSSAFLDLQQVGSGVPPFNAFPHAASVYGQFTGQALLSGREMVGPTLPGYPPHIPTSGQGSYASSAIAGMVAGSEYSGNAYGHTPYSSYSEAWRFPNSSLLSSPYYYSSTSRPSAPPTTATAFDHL
Chain of Beta Lactamase (Q932Y6 whole entry): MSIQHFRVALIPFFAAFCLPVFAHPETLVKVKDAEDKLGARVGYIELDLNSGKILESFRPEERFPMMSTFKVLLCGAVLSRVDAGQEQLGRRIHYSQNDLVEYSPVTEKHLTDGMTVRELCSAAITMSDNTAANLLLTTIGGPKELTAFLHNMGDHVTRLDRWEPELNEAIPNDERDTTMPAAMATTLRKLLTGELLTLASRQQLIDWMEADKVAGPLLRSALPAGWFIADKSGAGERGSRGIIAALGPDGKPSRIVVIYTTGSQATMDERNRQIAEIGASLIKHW

With `O=S(=O)(/C=C/C=C/S(=O)(=O)c1ccccc1)c1ccccc1` the CC50 [1] was 0.59 µM (active), the IC50 (CHO) was 0.959 µM (active) and the IC50 [2] was 1.61 µM (active). The IC50 (Beta Lactamase) was > 49.8 µM (inactive).
In the case of `O=C(Nc1cccnc1)N1CCN(c2ccccc2)CC1`, the AC50 [3] is reported as 13 µM (active).
In the case of `Cc1ccc(S(=O)(=O)N(C)C[C@@H]2OCCCC[C@H](C)Oc3ccc(NS(=O)(=O)c4c(C)noc4C)cc3C(=O)N([C@H](C)CO)C[C@@H]2C)cc1`, the AC50 (A549) is reported as 25.1 µM (active).
In the case of `COC(=O)c1cc(Br)cnc1N1CCC(NC2CCCCC2)C(C)C1` (stereo not drawn), the IC50 [4] is reported as 0.075 µM (active).
With `C[C@@H]1CN([C@H](C)CO)C(=O)c2c(c3ccccc3n2C)-c2ccccc2CO[C@@H]1CN(C)Cc1cccc(C(F)(F)F)c1` the AC50 [5] was 3.38 µM (active), the AC50 [6] was 1.87 µM (active) and the AC50 [7] was 27.2 µM (active). For the same compound, the AC50 [8] was 14.3 µM (active), the AC50 [9] was 2.09 µM (active) and the AC50 [10] was 1.28 µM (active). The AC50 [11] was 19.6 µM (active).
For `CCC(=O)Nc1sc(C(=O)Nc2ccccc2)c(C)c1C(=O)OC`, the AC50 [12] was 26 µM (active).
For `O=c1oc2ccc(OCCc3ccc(F)cc3)cc2cc1Br`, the IC50 [13] was > 100 µM (inactive) and the IC50 [14] was 91.7 µM (inactive).
For `O=C(c1cc(-c2cccs2)on1)N1CCN(C(c2ccccc2)c2ccccc2)CC1`, the AC50 [15] was 9.18 µM (active), the AC50 [16] was 48.4 µM (active) and the AC50 [17] was > 100 µM (inactive). The AC50 (Paired box protein Pax-8) was 0.733 µM (active), the IC50 (Beta-galactosidase) was > 80 µM (inactive) and the AC50 [18] was 60.2 µM (active). The AC50 [19] was 49.9 µM (active), the AC50 [20] was 44.4 µM (active) and the AC50 [21] was 80.1 µM (active). The AC50 [22] was 44.1 µM (active).
With `Cc1cccc(C(=O)Nc2cccc(NC(=O)c3ccco3)c2)c1` the IC50 [23] was 1.67 µM (active).
